Test results as given in patent US20100286128A1 (priority 2007, published 2010).
Where a name gives a salt, the structure may show the parent alone.

Biological target: α7-subtype of nicotinic receptors (Rattus norvegicus, UniProt Q05941)
Assay: biochemical
Type: binding

Sequence of α7-subtype of nicotinic receptors (Q05941 23-502): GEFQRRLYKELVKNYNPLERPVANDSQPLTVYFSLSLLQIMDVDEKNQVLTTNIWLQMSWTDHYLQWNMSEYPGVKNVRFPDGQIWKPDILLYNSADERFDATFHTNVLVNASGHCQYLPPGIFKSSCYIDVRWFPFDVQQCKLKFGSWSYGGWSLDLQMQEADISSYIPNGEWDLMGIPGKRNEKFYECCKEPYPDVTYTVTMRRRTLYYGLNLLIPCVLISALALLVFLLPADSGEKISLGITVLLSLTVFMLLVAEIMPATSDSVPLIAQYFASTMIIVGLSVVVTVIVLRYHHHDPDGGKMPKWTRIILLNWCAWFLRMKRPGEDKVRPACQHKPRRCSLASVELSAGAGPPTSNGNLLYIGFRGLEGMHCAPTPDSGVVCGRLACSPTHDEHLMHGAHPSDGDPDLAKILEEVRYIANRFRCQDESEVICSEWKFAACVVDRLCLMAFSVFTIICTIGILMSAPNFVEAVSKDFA

c1csc(-c2cnc(N3CCN4CCC3CC4)nc2)c1 [Compound A1, 4-(5-Thiophen-2-yl-pyrimidin-2-yl)-1,4-diaza-bicyclo[3.2.2]nonane hydrochloric acid salt]
IC50: < 100 nM
